Active and inactive are the calls of the source.
Assays:
[1] = target: E3 ubiquitin-protein ligase UHRF1 (Homo sapiens, UniProt Q96T88); assay: Counterscreen for inhibitors of 5-meCpG-binding domain protein 2 (MBD2): TRFRET-based biochemical high throughput dose response assay to identify inhibitors of binding of ubiquitin-like with PHD and ring finger domains 1 (UHRF1) to methylated oligonucleotide.
[2] = target: Kallikrein-7 (Homo sapiens, UniProt P49862); assay: Fluorescence Intensity-based biochemical primary high throughput dose response assay to identify activators of kallikrein-7 (K7) zymogen.
Chain of Kallikrein-7 (P49862 whole entry): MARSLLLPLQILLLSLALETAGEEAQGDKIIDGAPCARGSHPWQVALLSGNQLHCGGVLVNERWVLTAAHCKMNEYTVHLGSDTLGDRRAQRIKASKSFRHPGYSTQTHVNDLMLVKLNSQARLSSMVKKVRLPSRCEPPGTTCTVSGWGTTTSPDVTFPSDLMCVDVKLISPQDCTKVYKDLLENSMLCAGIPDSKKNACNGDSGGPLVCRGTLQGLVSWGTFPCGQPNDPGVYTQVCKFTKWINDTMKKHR

[3] = target: T1, Methionyl-tRNA synthetase, putative (Trypanosoma brucei brucei, UniProt Q38C91); assay type: functional, Trypanosoma brucei brucei strain 927/4 GUTat10.1
T1 sequence (Q38C91 whole entry): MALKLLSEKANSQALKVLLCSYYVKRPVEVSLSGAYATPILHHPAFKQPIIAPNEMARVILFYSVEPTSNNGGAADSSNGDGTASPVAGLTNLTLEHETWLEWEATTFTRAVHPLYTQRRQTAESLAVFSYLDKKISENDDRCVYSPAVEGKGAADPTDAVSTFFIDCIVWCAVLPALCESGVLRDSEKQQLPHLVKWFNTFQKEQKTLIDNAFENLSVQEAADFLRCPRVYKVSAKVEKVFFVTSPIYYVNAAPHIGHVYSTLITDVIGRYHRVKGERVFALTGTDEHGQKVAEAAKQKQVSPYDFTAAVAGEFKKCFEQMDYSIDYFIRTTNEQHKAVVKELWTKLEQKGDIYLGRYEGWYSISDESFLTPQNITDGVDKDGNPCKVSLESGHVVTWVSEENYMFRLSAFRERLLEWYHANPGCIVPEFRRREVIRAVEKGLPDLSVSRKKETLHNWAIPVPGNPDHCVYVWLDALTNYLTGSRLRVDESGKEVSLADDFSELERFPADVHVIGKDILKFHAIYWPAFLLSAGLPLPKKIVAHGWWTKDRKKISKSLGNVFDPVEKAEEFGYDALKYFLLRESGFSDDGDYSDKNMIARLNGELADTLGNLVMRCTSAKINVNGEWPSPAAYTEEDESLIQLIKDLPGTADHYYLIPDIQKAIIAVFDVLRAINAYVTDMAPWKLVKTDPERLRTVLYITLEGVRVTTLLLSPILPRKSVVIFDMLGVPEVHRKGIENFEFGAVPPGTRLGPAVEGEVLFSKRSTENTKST

[4] = Counterscreen for inhibitors of Trypanosoma brucei methionyl tRNA synthetase (MetRS): Luminescence-based cell-based high throughput dose response assay to identify compounds that are cytotoxic to Jurkat human T lymphocyte cells.; assay type: functional
[5] = target: T1, Methionyl-tRNA synthetase, putative; assay type: functional, Trypanosoma brucei brucei strain 927/4 GUTat10.1; remark: listed apart in the source
[6] = Late stage counterscreen for inhibitors of Trypanosoma brucei methionyl tRNA synthetase (MetRS): Luminescence-based cell-based high throughput dose response assay to identify compounds that are cytotoxic to Jurkat human T lymphocyte cells.; assay type: functional
[7] = Luminescence Cell-Based Dose Response HTS to Identify Inhibitors of 5'UTR Stem-Loop Driven Prion Protein mRNA Translation in H4 Neuroglioblastoma Cells. [Related pubchem assays: 1827 (Project Summary), 1813 (Primary HTS)]; assay type: functional
[8] = A549 cell cytotoxicity, dose response, cytotoxicity control, plate reader, cherry-pick, antagonist series (AID 743412); assay type: functional, cell-based
[9] = HepG2 cell cytotoxicity, dose response, cytotoxicity control, plate reader, cherry-pick, antagonist series (AID 743416); assay type: functional, cell-based
[10] = LGR2 antagonists, dose response, cell-based, HEK293, CRE-luciferase reporter, cherry pick, set 2 (AID 743343); assay type: functional;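 note: transfected cells were stimulated with diluted bursicon conditioned medium after compound addition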
[11] = MC4R antagonists, dose response, counter-screen for LGR2 antagonist project, cell-based, plate reader, cherry pick (AID 743444); assay type: functional;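 note: transfected HEK 293 cells stimulated with alpha-MSH peptide; potency of inhibitors of the alpha-MSH evoked signal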
[12] = target: T2, Oxysterols receptor LXR-beta (Homo sapiens, UniProt P55055); assay type: functional, cell-based;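 note: Cell-based luminescence dose-response assay of agonist activity at LXR, run as a confirmatory counterscreen to a daf-12 agonist screen; HEK293 cells with Gal4-LXR fusion and GAL4-driven luciferase reporter; agonist potency from rising luciferase signal of a Gal4-LXR reporter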
T2 sequence (P55055 whole entry): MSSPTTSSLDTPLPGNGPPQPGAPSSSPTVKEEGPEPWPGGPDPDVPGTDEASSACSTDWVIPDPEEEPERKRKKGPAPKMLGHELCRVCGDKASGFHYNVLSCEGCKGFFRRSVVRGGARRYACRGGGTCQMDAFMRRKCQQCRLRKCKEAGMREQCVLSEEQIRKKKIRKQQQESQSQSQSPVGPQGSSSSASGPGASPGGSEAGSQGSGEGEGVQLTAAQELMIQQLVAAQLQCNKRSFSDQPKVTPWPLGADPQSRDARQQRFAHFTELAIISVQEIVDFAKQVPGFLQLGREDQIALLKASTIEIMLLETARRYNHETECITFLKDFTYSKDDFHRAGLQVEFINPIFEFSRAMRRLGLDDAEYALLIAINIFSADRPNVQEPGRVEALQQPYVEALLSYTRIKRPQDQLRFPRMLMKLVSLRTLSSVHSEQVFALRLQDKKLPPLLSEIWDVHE

[13] = cells
[14] = test system: INS1; assay: beta cell apoptosis inhibitors, cytokine rescue, dose response, luminescence, retest (AID 449756); assay type: functional, cell-based; conditions: Rattus norvegicus;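 note: cell death triggered by IL-1 beta plus TNF-alpha plus IFN-gamma mixture; protective hits raise ATP signal compared with cytokine alone wells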
[15] = target: Protein Wnt-3a (Mus musculus, UniProt P27467); assay: Wnt3a-driven reporter signaling inhibition, dose response, selectivity assay for Gli-SUFU antagonist project, Wnt-LIGHT cells, luminescence (AID 651570); assay type: functional; conditions: read-out: IC50_Mean;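 note: Wnt-LIGHT reporter cells stimulated with conditioned medium from Wnt3a-producing cells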
Chain of Protein Wnt-3a (P27467 whole entry): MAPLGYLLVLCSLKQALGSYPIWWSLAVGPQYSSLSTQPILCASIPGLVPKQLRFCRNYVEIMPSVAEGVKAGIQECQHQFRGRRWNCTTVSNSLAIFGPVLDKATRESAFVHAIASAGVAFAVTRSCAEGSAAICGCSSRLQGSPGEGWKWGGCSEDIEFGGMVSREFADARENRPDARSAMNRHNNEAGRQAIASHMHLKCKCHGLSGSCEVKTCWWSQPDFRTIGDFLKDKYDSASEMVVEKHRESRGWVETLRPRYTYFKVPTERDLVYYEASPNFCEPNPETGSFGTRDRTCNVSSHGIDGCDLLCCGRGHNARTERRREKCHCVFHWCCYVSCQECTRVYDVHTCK

[16] = HeLa 2N DNA content increase, dose response, cell-based, IC50 (AID 1117349); assay type: functional
[17] = HeLa 4N DNA content increase, dose response, cell-based, IC50 (AID 1117351); assay type: functional
[18] = target: Solute carrier family 12 member 2/member 5 (Homo sapiens, UniProt P55011+Q9H2X9); assay: KCC2 and NKCC1 inhibition by rubidium flux, cell-based, NKCC1 counter-screen (AID 1734); assay type: functional, HEK293
[19] = test system: HT-1080; assay: cytotoxicity in HT1080 fibrosarcoma cells, cell-based, fluorescence readout (AID 620); assay type: functional; conditions: Homo sapiens

Chain of E3 ubiquitin-protein ligase UHRF1 (Q96T88 whole entry, the tested form may be a part): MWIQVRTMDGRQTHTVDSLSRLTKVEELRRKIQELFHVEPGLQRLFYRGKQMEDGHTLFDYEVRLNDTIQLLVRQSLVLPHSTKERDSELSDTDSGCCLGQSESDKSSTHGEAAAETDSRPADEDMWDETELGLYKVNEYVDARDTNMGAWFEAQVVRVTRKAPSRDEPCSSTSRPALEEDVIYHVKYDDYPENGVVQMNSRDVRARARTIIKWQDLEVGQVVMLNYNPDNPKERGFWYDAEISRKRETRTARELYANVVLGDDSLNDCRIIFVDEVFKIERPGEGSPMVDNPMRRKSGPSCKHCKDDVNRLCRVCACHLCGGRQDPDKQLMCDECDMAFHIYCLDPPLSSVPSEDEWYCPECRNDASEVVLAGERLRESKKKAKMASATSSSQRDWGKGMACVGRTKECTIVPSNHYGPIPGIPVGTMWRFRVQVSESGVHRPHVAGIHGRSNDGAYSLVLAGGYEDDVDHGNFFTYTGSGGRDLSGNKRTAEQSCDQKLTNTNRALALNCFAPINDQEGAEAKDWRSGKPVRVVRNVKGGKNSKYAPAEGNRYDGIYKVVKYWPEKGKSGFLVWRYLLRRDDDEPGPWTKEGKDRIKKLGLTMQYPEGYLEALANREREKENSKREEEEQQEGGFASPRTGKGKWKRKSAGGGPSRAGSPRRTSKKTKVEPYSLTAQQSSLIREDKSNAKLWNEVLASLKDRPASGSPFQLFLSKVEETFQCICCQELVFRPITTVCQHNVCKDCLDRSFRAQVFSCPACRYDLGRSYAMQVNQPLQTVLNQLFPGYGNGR

## CC(=O)Nc1sc2c(c1-c1nc3ccccc3s1)CCN(C(C)C)CC2
[1]
  IC50: 16.9 µM (inactive)

## Cc1ccc2nc(NCC(=O)O)nc(-c3ccccc3)c2c1
[2]
  EC50: 14.5 µM (inactive)

## CCO[C@H]1OC(C(=O)NCc2nc3ccccc3[nH]2)=C[C@@H](c2ccc(Br)cc2)[C@@H]1CCCO
[3]
  IC50: 8.41 µM (active)
[4]
  IC50: 83.3 µM (inactive)
[5]
  IC50: 5.73 µM (active)
[6]
  IC50: 57 µM (inactive)

## Cc1ccc2[nH]c(CSc3nc(C)ccc3C#N)nc2c1
[7]
  EC50: > 120 µM (not active)
[8]
  AC50: > 52 µM (inactive)
[9]
  AC50: > 52 µM (inactive)
[10]
  AC50: 30.8 µM (active)
[11]
  AC50: 33.5 µM (active)
[12]
  EC50: > 67.5 µM (inactive)
[13]
  EC50: > 67.5 µM (inactive)

## CCCCCCC[N+](CC)(CC)CCCCc1ccc(Cl)cc1
[14]
  AC50: 4.29 µM (active)
[15]
  IC50: 2.74 µM (active)
[16]
  IC50: > 10 µM (inactive)
[17]
  IC50: > 10 µM (inactive)

## O=C(CCS(=O)(=O)Cc1ccccc1)Nc1nc2c(s1)CCCC2
[18]
  IC50: 13.4 µM (active)

## COc1ccc2[nH]c(-c3ccc(N)cc3)nc2c1
[19]
  EC50: > 50 µM (not active)

— ChEMBL document CHEMBL1201862, “PubChem BioAssay data set” (2004)
